Broadly, the GI50 is the concentration giving 50% growth inhibition. The low end stands for more potent growth inhibition, the high end for less potent growth inhibition. The term IC50 denotes the midpoint of a concentration-inhibition curve.

This note sets out measurements from patent US8815891B2, “Tricyclic derivative or pharmaceutically acceptable salts thereof, preparation method thereof, and pharmaceutical composition containing the same” (Je Il Pharmaceutical Co., Ltd., priority 2008, dated 2014).

Counter-ions that a name gives are not always drawn. Like-named read-outs stand apart in the source and are kept apart here.

One test deals with A549 cell line. Put plainly: Cell growth inhibition of cancer cell lines (SRB assay), A549. Format: cell-based. As to conditions: for SN-38 PF50 / Temozolomide PF50: 2 μM compound; for SN-38 PF50: GI50 SN-38 alone / GI50 with compound; for Temozolomide PF50: GI50 temozolomide alone / GI50 with compound; for GI50: Homo sapiens, 72 hours. How it is done:
(§1) The tests on cell growth inhibitory activity were performed with respect to A549 (US, ATCC), SK-OV-3 (Korea Research Institute of Chemical Technology; KRICT), HT-29 (US, ATCC), MCF-7 cell (US, ATCC), using Sulforhodamin-B <SRB> Assay (1989, US National Cancer Institute (NCI)) which was developed to measure the in vitro anti-cancer activity of the drug. […] The samples of the compounds of the Examples according to the present invention were used for the tests, and before the tests, the samples were dissolved in dimethylsulfoxide and diluted with the culture medium (RPMI 1640) to be used. The final concentration of the sample was varied in the range of 0.3˜100 μM. After the culture medium was removed from the 96 well plates, the diluted sample solution was added by 100 μl, and cultured in 37° C., 5% CO2 culture medium for 72 hours. The time zero (Tz) plates were collected at the time point of adding the sample. Upon completing the culture, the medium was removed from each well along with Tz plate, then cold 10% trichloroacetic acid (TCA) was added by 100 μl per well. The wells were left at 4° C. for 1 hour, so that the cells were fixed into the bottom of the plates. After the cells were fixed, the plates were rinsed with water five to six times to remove the remaining trichloroacetic acid solution, and moisture was completely dried at room temperature. The cells were dyed for 30 minutes by adding the dye solution in which 0.4% sulforhodamine-B was dissolved in 1% acetic acid solution, by 100 μl per dried wells. The above was rinsed again with 1% acetic acid solution five to six times to ensure that sulforhodamine-B which had not attached to the cells was removed. The plates were again dried at room temperature. 100 μl of 10 mM tris-buffer was then added to dissolve the dye, and the optical density (OD) at 520 nm was measured with the microplate reader. GI50 of the sample regarding cancer cell was calculated as explained below. Time zero (Tz), control value (C) and test value (T) were obtained, in which Tz corresponds to OD value of time at which the sample is applied and culture is started, C corresponds to OD value of the well which is cultured without treatment with the sample, and T corresponds to OD value of the well which is treated with the sample and then cultured. The degree of cell growth inhibition of the sample was measured using: If […] [Mathematical Formula 1]
(§2) Further, the ability of Examples 2, 42, 49, 52, 72, 74, 101 to increase growth inhibition effect of temozolomide and SN-38 at 2 μM was determined.
On the technique in general: The SRB assay estimates cell density from bound dye.

The target of test [1] is PARP-1 enzyme (Homo sapiens (Human), UniProt P09874). Put plainly: Poly(ADP-ribose)polymerase [PARP-1] enzyme inhibitory activity (Trevigen PARP Assay kit). To be noted: read-out: PARP-1 Inhibitory activity IC50. The format is biochemical. In outline: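 On histone-coated plates, PARP-1 (0.12 unit/well) reacted with compound for 30 min at 25 °C in a 2× cocktail of 1.95 mM NAD+, 50 μM biotinylated NAD+ and activated DNA (Tris pH 8.0, 25 mM MgCl2). Biotin-ribosylated histone was detected with streptavidin-HRP and TACS-Sapphire substrate, stopped with HCl and read at 450 nm.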

Another test has as its system SK-OV-3 Cell line. Nature of the test: Cell growth inhibition of cancer cell lines (SRB assay), SK-OV-3. The format is cell-based. To be noted: for SN-38 PF50 / Temozolomide PF50: 2 μM compound; for GI50: Homo sapiens, 72 hours. How it is done:
as §1, §2

A further test relates to MCF-7 Cell line. Put plainly: Cell growth inhibition of cancer cell lines (SRB assay), MCF-7. The format is cell-based. As to conditions: for SN-38 PF50 / Temozolomide PF50: 2 μM compound; for GI50: Homo sapiens, MCF7, 72 hours. The method, then: as §1, §2
The subject of the next test is HT-29 Cell line. Nature of the test: Cell growth inhibition of cancer cell lines (SRB assay), HT-29. The format is cell-based. To be noted: for SN-38 PF50 / Temozolomide PF50: 2 μM compound; for GI50: Homo sapiens, 72 hours. The method, then: as §1, §2
Test [2] addresses PARP-1 enzyme (Cricetulus griseus (Chinese hamster) (Cricetulus barabensis griseus), UniProt Q9R152). Put plainly: Intracellular PARP inhibitory activity (NAD(P)H released by MMS-treated CHO-K1 cells). Format: cell-based. The method, then:
In order to verify the ability of the compounds of the present invention to inhibit the PARP-1 enzyme activity, the amount of NAD(P)H accumulated on cell culture medium was measured.
The Chinese hamster ovary cells (CHO-K1) were cultured in RPMI1640 culture medium containing 10% fetal bovine serum (FBS). The cultured CHO-K1 cells were seeded into 96 well plate by 2.9×10^3 cells/well, and cultured for 16 hours under culture condition of 37° C., 5% CO2. After the culture, the cells were treated with the compounds of the Examples at varying concentrations, and cultured at 37° C. for 2 hours. […] The amount of […] released to the culture medium 3, 4, 5 hours after the treatment with MMS was quantified at 450 nm using Wallac EnVision™ (PerkinElmer Oy, Turku, Finland). The transference numbers of the compounds at varying concentrations according to the present invention are the average values obtained from four wells, and the results were calculated using regression analysis.
The Chinese hamster ovary cells (CHO-K1) were treated with the compounds at varying concentration according to the present invention, and the amount of NAD(P)H released into the culture medium 4 hours after the MMS treatment was quantified.

Setting [3] is: PARP-1 enzyme, histone ribosylation, 450 nm.

Chain of PARP-1 enzyme (Cricetulus griseus (Chinese hamster) (Cricetulus barabensis griseus), UniProt Q9R152) (Q9R152 whole entry): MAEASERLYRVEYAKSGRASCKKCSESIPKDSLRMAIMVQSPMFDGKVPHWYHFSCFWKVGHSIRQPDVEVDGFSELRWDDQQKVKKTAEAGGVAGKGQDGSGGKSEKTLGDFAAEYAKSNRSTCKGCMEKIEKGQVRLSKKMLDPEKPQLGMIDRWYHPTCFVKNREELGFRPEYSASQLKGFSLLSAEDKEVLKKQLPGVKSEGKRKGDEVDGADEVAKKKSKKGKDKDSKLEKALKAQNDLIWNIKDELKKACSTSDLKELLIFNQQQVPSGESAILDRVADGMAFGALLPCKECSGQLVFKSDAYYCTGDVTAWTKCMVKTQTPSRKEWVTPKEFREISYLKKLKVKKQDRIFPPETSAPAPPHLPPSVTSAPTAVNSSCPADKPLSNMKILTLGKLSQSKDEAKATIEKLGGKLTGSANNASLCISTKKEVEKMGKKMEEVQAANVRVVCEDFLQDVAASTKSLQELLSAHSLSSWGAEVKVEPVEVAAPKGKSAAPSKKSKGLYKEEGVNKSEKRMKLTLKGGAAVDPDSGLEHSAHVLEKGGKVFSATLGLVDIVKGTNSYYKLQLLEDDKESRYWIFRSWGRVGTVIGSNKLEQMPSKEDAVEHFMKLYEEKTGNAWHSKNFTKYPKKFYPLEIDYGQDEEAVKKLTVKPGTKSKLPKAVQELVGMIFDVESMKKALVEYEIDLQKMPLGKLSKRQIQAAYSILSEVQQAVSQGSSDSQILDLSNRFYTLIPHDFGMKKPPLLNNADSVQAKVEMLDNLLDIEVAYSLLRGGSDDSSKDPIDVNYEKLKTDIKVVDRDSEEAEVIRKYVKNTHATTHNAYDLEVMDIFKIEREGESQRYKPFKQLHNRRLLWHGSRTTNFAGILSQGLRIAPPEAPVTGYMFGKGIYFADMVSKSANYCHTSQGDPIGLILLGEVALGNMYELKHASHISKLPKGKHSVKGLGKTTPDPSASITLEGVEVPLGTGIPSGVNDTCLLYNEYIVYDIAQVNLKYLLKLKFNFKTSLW
Chain of PARP-1 enzyme (Homo sapiens (Human), UniProt P09874) (P09874 whole entry): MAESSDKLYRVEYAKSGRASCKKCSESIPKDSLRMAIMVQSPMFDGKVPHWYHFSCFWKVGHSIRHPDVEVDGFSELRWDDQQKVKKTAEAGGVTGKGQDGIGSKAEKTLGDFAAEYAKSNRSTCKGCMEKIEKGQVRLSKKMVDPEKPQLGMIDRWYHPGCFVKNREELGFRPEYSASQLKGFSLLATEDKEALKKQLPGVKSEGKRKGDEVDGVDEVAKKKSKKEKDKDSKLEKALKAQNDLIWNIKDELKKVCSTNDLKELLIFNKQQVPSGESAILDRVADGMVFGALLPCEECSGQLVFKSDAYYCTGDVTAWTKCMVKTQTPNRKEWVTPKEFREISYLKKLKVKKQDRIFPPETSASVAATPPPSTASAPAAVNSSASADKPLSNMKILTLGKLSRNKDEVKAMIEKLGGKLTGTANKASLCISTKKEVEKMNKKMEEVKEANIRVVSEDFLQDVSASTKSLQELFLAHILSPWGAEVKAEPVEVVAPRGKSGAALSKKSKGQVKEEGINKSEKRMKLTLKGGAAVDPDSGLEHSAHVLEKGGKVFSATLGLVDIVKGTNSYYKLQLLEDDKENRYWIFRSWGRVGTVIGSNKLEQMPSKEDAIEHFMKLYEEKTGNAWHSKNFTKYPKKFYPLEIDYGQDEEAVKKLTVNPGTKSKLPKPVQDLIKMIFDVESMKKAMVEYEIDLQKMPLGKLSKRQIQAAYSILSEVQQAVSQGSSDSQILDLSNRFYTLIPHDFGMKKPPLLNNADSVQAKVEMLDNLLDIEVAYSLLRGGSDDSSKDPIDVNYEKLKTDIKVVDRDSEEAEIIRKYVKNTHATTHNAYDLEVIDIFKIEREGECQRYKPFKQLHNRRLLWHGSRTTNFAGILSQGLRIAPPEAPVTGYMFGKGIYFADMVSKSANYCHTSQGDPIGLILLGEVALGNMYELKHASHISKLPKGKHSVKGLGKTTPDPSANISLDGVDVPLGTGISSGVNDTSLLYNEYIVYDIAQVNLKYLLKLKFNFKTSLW

As to `O=c1[nH]c2ccc(OCCCCN3CCCCC3)cc2c2c1CCCN2` [Example 29, 9-[4-(Piperidine-1yl)butoxy]-1,2,3,4-tetrahydrobenzo[h][1,6]naphthyridine-5(6H)-one dihydrochloride], the “SN-38 PF50” value in the test on A549 cell line was 1.5; in the test with SK-OV-3 Cell line, 1.5; with MCF-7 Cell line, 2.2; in the test with HT-29 Cell line, 1.5. The “Temozolomide PF50” value was 2.0 with A549 cell line, greater than 1.7 with SK-OV-3 Cell line, 2.1 in the test with MCF-7 Cell line and greater than 1.2 in the test with HT-29 Cell line. In addition, the GI50 in the test on A549 cell line is greater than 100000 nM; in the test on SK-OV-3 Cell line, greater than 100000 nM; with MCF-7 Cell line, greater than 100000 nM; with HT-29 Cell line it was 91000 nM. The IC50 at PARP-1 enzyme [1] came out at 2850 nM.

With `CCN(CC)Cc1ccc2c3c(c(=O)[nH]c2c1)CCCN3` [Example 42, 8-[(Diethylamino)methyl]-1,2,3,4-tetrahydrobenzo[h][1,6]naphthyridine-5(6H)-one dihydrochloride], the “SN-38 PF50” value with A549 cell line is recorded as 1.6; in the test with SK-OV-3 Cell line it was 1.6; in the test with MCF-7 Cell line, 1.6; in the test on HT-29 Cell line it was 2.1. Besides, the “Temozolomide PF50” value with A549 cell line is 2.3; with SK-OV-3 Cell line, greater than 2.1; in the test with MCF-7 Cell line it was 1.6; in the test on HT-29 Cell line, greater than 1.4. Also, the 50% growth inhibitory concentration (GI50) in the test with A549 cell line is greater than 100000 nM; with SK-OV-3 Cell line it was greater than 100000 nM; in the test on MCF-7 Cell line, 75000 nM; in the test with HT-29 Cell line it was 81000 nM. In addition, the half-maximal inhibitory concentration (IC50) was 220 nM at PARP-1 enzyme [1] and 850 nM at PARP-1 enzyme [2].

For the compound `CN(C)CCc1ccc2c3c(c(=O)[nH]c2c1)CCCN3` [Example 32, 8-[2-(Dimethylamino)ethyl]-1,2,3,4-tetrahydrobenzo[h][1,6]naphthyridine-5(6H)-one dihydrochloride], the half-inhibitory concentration (IC50) at PARP-1 enzyme [1] (setting [3]) was less than 1000 nM; at PARP-1 enzyme [1] it was 230 nM; at PARP-1 enzyme [2] it was 3160 nM.

As to `COCCOc1ccc2[nH]c(=O)c3c(c2c1)NCCC3` [Example 18, 9-(2-Methoxyethoxy)-1,2,3,4-tetrahydrobenzo[h][1,6]naphthyridine-5(6H)-one hydrochloride], the half-maximal inhibitory concentration (IC50) at PARP-1 enzyme [1] (setting [3]) stood at 1520 nM; at PARP-1 enzyme [2], 3710 nM.

Turning to `CC(c1ccc2c3c(c(=O)[nH]c2c1)CCCN3)N(C)C` (stereo not shown) [Example 38, 8-[1-(Dimethylamino)ethyl]-1,2,3,4-tetrahydrobenzo[h][1,6]naphthyridine-5(6H)-one dihydrochloride], the IC50 on PARP-1 enzyme [1] (setting [3]) is less than 1000 nM; at PARP-1 enzyme [1] it was 50 nM; at PARP-1 enzyme [2], 140 nM.

On to `COc1cc(CN2CCSCC2)cc2[nH]c(=O)c3c(c12)NCCC3` [Example 106, 10-Methoxy-8-(thiomorpholinomethyl)-1,2,3,4-tetrahydrobenzo[h][1,6]naphthyridine-5(6H)-one dihydrochloride], for which the half-inhibitory concentration (IC50) at PARP-1 enzyme [1] worked out at 90 nM; on PARP-1 enzyme [2] it was 290 nM.

`COCCOc1cc(CN2CCOCC2)cc2[nH]c(=O)c3c(c12)NCCC3` [Example 117, 10-(2-Methoxyetoxy)-8-(morpholinomethyl)-1,2,3,4-tetrahydrobenzo[h][1,6]naphthyridine-5(6H)-one dihydrochloride]: the half-inhibitory concentration (IC50) at PARP-1 enzyme [1] (setting [3]) came to 610 nM; on PARP-1 enzyme [2] it was 6320 nM.

On to `CCCN(C)Cc1ccc2c3c(c(=O)[nH]c2c1)CCCN3` [Example 56, 8-[(Methyl(propyl)amino)methyl]-1,2,3,4-tetrahydrobenzo[h][1,6]naphthyridine-5(6H)-one dihydrochloride], for which the results for the IC50 at PARP-1 enzyme [1] and at PARP-1 enzyme [2] were 180 nM and 470 nM, respectively.

Consider `COc1cccc2[nH]c(=O)c3c(c12)NCCC3.Cl` [Example 2, 10-Methoxy-1,2,3,4-tetrahydrobenzo[h][1,6]naphthyridine-5(6H)-one hydrochloride], for which the “SN-38 PF50” value is reported as 2.2 with A549 cell line, 1.2 in the test on SK-OV-3 Cell line, 1.4 in the test with MCF-7 Cell line and 1.4 with HT-29 Cell line. Also, the “Temozolomide PF50” value in the test with A549 cell line is listed as 2.4; in the test with SK-OV-3 Cell line it was greater than 3.2; in the test on MCF-7 Cell line, 1.7; in the test with HT-29 Cell line, greater than 1.5. The 50% growth inhibitory concentration (GI50) was determined as 59000 nM in the test with A549 cell line, 50000 nM in the test with SK-OV-3 Cell line, 51000 nM in the test with MCF-7 Cell line and 70000 nM in the test on HT-29 Cell line. In addition, the 50% inhibitory concentration (IC50) on PARP-1 enzyme [1] (setting [3]) worked out at 600 nM; at PARP-1 enzyme [2] it was 920 nM.

Take `O=c1[nH]c2ccc(OCCN3CCCCC3)cc2c2c1CCCN2` [Example 17, 9-[2-(Piperidine-1yl)ethoxy]-1,2,3,4-tetrahydrobenzo[h][1,6]naphthyridine-5(6H)-one dihydrochloride]: the IC50 on PARP-1 enzyme [1] (setting [3]) was less than 1000 nM; on PARP-1 enzyme [1] it was 460 nM; on PARP-1 enzyme [2], 1630 nM.

Take `CCCOc1cc(CN(C)C)cc2[nH]c(=O)c3c(c12)NCCC3` [Example 110, 8-[(Dimethylamino)methyl)]-10-propoxy-1,2,3,4-tetrahydrobenzo[h][1,6]naphthyridine-5(6H)-one dihydrochloride]: the IC50 at PARP-1 enzyme [1] (setting [3]) turned out to be 80 nM; on PARP-1 enzyme [2], 90 nM.

For the compound `CNCc1ccc2c3c(c(=O)[nH]c2c1)CCCN3` [Example 52, 8-[(Methylamino)methyl]-1,2,3,4-tetrahydrobenzo[h][1,6]naphthyridine-5(6H)-one dihydrochloride], the “SN-38 PF50” value with A549 cell line is recorded as 2.2; with SK-OV-3 Cell line it was 1.4; in the test on MCF-7 Cell line it was 1.1; in the test with HT-29 Cell line, 1.4. For the same compound, the “Temozolomide PF50” value with A549 cell line was 1.5; in the test on SK-OV-3 Cell line it was greater than 2.2; with MCF-7 Cell line, 1.5; with HT-29 Cell line, greater than 1.3. For the same compound, the GI50 with A549 cell line was greater than 100000 nM; with SK-OV-3 Cell line it was greater than 100000 nM; in the test on MCF-7 Cell line it was greater than 100000 nM; in the test on HT-29 Cell line it was 90000 nM. For the same compound, on PARP-1 enzyme [1], the concentration for half-maximal inhibition (IC50) is 70 nM.

Turning to `CCCOc1cc(CN2CCOCC2)cc2[nH]c(=O)c3c(c12)NCCC3` [Example 111, 8-(Morpholinomethyl)-10-propoxy-1,2,3,4-tetrahydrobenzo[h][1,6]naphthyridine-5(6H)-one dihydrochloride], the IC50 was found to be 960 nM on PARP-1 enzyme [1] and 1330 nM at PARP-1 enzyme [2].

As to `O=c1[nH]c2cc(CN3CCCC3)ccc2c2c1CCCN2` [Example 44, 8-(Pyrrolidine-1-ylmethyl)-1,2,3,4-tetrahydrobenzo[h][1,6]naphthyridine-5(6H)-one dihydrochloride], the values for the IC50 on PARP-1 enzyme [1] (dihydrochloride) and on PARP-1 enzyme [2] were 60 nM and 340 nM, respectively.

`CN(C)c1ccc2c3c(c(=O)[nH]c2c1)CCCN3` [Example 37, 8-(Dimethylamino)-1,2,3,4-tetrahydrobenzo[h][1,6]naphthyridine-5(6H)-one hydrochloride]: the half-maximal inhibitory concentration (IC50) at PARP-1 enzyme [1] (setting [3]) is greater than 4000 nM; on PARP-1 enzyme [2] (CHO-K1 cells, NAD(P)H released 4 hours after MMS treatment, read-out: PARP-1 Inhibitory activity IC50), 4860 nM.
